Results from patent publication US20090181888A1, “Skin Repair Accelerating Therapeutic Agent Containing Ghrelin and Derivatives Thereof or Substance Acting On GHS-R1a as Active Ingredient” (priority 2005, published 2009).
Square brackets hold non-standard residues; d marks the D form. Ends that are not written are not given here. * marks the point of attachment. Octanoyl = CCCCCCCC(=O)*

Columns and labels:
Format in all cases: cell-based, Wistar rat
cultured fetal skin cell [1] = test: [3H]-thymidine uptake acceleration in cultured fetal skin cell; settings: ghrelin 0.5, 5 and 50 pmol/mL (nM); incubated 24 or 48 hours; versus control without ghrelin; FIG. 3
Method: The skin cells of a rat fetus were collected from a Wistar rat on the 17th day of pregnancy, and a dispersion liquid thereof was obtained in the same manner as in Example 2. The dispersed cells were suspended in a MCDB153HAA medium (F-Peptide Co., Ltd., Yamagata, Japan) containing 2% fetal bovine serum, penicillin (100 U/mL), streptomycin (100 μg/mL) and epidermal growth factor EGF (5 ng/mL), and sowed on a polyethyleneimine coated 48-hole multi-well plate in an amount of 5×10^5 cells/well. Ghrelin ([…] (nM))) and [^3H]-thymidine (2 μCi/mL) were added thereto, which was then incubated for 24 hours or 48 hours. A culture solution without containing ghrelin was prepared as a control. After the incubation was over, the cells were collected and radioactivity was measured.
The results are shown in FIG. 3 (black triangle: 50 pmol/mL, black square: 5 pmol/mL, black circle: 0.5 pmol/mL, white circle: control).

[2] = tested on: fetal skin cell having GHS-R1a; test: Intracellular calcium-increasing activity in cultured fetal skin cell (Fura-2 calcium imaging); settings: single skin cell of rat fetus
Method: A Wistar rat on the 17th day of pregnancy underwent laparotomy under anesthesia for fetus extraction. A small piece of skin was collected from the fetus, treated with collagenase in cold Hank's solution, digested with papain, and mechanically separated by pipetting. This gave a dispersion liquid of the fetal skin cells. A single cell was obtained from the dispersion liquid, ghrelin was added thereto, and calcium imaging was performed. For the calcium imaging, a calcium imaging device (IMACS, Hamamatsu Photonics) was used. That is, the ratio of the emission at a wavelength of 510 nm was measured when excitation was performed by 340 nm/380 nm light. Fura-2 was used as a calcium imaging agent. Ghrelin derived from a rat (SEQ ID NO: 3) was used (the same in the following Examples).
In FIG. 2, I, II and III are the points at which a photograph was taken, but the photographs are omitted from the present description. […] Ghrelin and desacylghrelin were added to different cells, respectively.

cultured fetal skin cell [3] = test: Cell proliferation acceleration (BrdU uptake, Proliferation ELISA) in cultured fetal skin cell; settings: ghrelin 0.05 to 500 pmol/mL (nM) or GHRP6 0.05 to 50 pmol/mL (nM); 24 hours; versus control medium; FIG. 4
Method: The fetal skin cells were collected from a Wistar rat on the 17th day of pregnancy, and a dispersion liquid thereof was obtained in the same manner as in Example 2. The dispersed cells with ghrelin (0.05 to 500 pmol/mL (nM)) or GHRP6 (0.05 to 50 pmol/mL (nM)) were suspended in a MCDB153HAA medium (F-Peptide Co., Ltd., Yamagata, Japan) containing 2% fetal bovine serum, penicillin (100 U/mL), streptomycin (100 μg/mL) and epidermal growth factor EGF (5 ng/mL), and sowed on a polyethyleneimine coated 96-hole multi-well plate in an amount of 3×10^4 cells/well. A medium without containing ghrelin or GHRP6 was used as a control. 5-bromo-2′-deoxyuridine (BrdU) (10 μM) was added thereto, which was then incubated for 24 hours. After the culture was over, uptake quantity of BrdU into the fetal skin cell was measured using Proliferation ELISA Kit (Roche Diagnostic GmbH. Manheim, Germany) to consider the skin cell growth activity.

Substance	uptake of [3H]-thymidine into the cell (cultured fetal skin cell [1])	intracellular calcium in a single fetal skin cell ([2]; ghrelin 1×10^−6 M, day 17 of pregnancy, Fura-2, 340 nm/380 nm ratio, FIG. 2)	uptake of BrdU into the fetal skin cell (cultured fetal skin cell [3])	calcium response of a single fetal skin cell (FIG. 2 curve) ([2]; dotted-line curve of FIG. 2, concentration not given)
GSS (n-octanoyl) FLSPEHQKAQQRKESKKPPAKLQPR (GSS(Octanoyl)FLSPEHQKAQQRKESKKPPAKLQPR; listed as Rattus norvegicus) [ghrelin, 28-residue peptide, serine 3 acylated with n-octanoyl, endogenous GHS-R1a ligand]	increased	increase of calcium was observed	significantly increased	
desacylghrelin [reference compound]				responded
H[dW]AW[dF]K-NH2 [GHRP6, reference compound]			significantly increased	
